Laboratory results reported in US20130129695A1, “METHODS FOR TREATING OR INHIBITING INFECTION BY CLOSTRIDIUM DIFFICILE” (priority 2010, published 2013).

Columns and labels:
[1] = test system: C. difficile strain MMX3581 (clinical); assay: Minimum Inhibitory Concentration (MIC) assay; assay type: cell-based, Clostridium difficile; conditions: Clostridioides difficile, growth 18-24 hours at 37° C.
Experimental: (§1) The MIC assays are carried out in a final volume of 100 μL in 96-well clear round-bottom plates according to methods established by the Clinical Laboratory Standards Institute (CLSI). Briefly, test compound suspended in 100% DMSO (or another suitable solubilizing buffer) is added to an aliquot of media appropriate for a given pathogen to a total volume of 50 μL. This solution is serially diluted by 2-fold into successive tubes of the same media to give a range of test compound concentrations appropriate to the assay. To each dilution of test compound in media is added 50 ? L of a bacterial suspension from an overnight culture growth in media appropriate to a given pathogen. Final bacterial inoculum is approximately 10^5-10^6 CFU/well. […] Ciprofloxacin is used as an antibiotic-positive control in each screening assay. Each of the bacterial cultures that are available from the American Type Culture Collection (ATCC, www.atcc.org) is identified by its ATCC number.

[2] = test system: C. difficile strain ATCC 700057 (MMX 4381); assay: Minimum Inhibitory Concentration (MIC) assay; assay type: cell-based, Clostridium difficile; conditions: Clostridioides difficile, ATCC700057; C. difficile ATCC 700057 (MMX 4381); growth 18-24 hours at 37° C.
Experimental: as §1

[3] = test system: CD3299 riboswitch; assay: In-line probing assay, binding of ligands to CD3299 riboswitch; set-up: species or system Clostridium difficile
Experimental: An in-line probing assay, as described in Regulski and Breaker, “In-line probing analysis of riboswitches”, (2008), Methods in Molecular Biology, Vol 419, pp 53-67, the contents of which are incorporated by reference, is used to estimate the dissociation binding constants for the interaction of each of the ligands described herein with a CD3299 riboswitch amplified from Clostridium difficile. Precursor mRNA leader molecules are prepared by in vitro transcription from templates generated by PCR and [5′-^32P]-labeling using methods described previously (Regulski and Breaker, In-line probing analysis of riboswitches (2008), Methods in Molecular Biology Vol 419, pp 53-67). Approximately 5 nM of labeled RNA precursor is incubated for 41 hours at 25° C. in 20 mM MgCl2, 50 mM Tris/HCl (pH 8.3 at 25° C.) in the presence or absence of a fixed concentration of each ligand. Binding to the CD3299 riboswitches are measured 100 ? M. In-line cleavage products are separated on 10% polyacrylamide gel electrophoresis (PAGE), and the resulting gel is visualized using a Molecular Dynamics Phosphorimager. […]
In-line probing exploits the natural ability of RNA to self-cleave at elevated pH and metal ion concentrations (pH≈8.3, 25 mM MgCl2) in a conformation-dependent manner. […] These ligand-dependent changes in RNA cleavage can be readily detected by denaturing gel electrophoresis. […]

| Structure (SMILES) | MIC [1] | MIC [2] | binding to the CD3299 riboswitch (in words) [3] |
| --- | --- | --- | --- |
| Cc1cc2nc3c(=O)[nH]c(=O)nc-3n(CCNCc3ccccc3)c2cc1C [Compound 2] | ≤ 64 µg/mL | ≤ 64 µg/mL | – |
| Cc1cc2nc3c(=O)[nH]c(=O)nc-3n(CCNCc3ccc(Cl)cc3)c2cc1C [Compound 1] | ≤ 64 µg/mL | ≤ 64 µg/mL | – |
| Cc1cc2nc3c(=O)[nH]c(=O)nc-3n(C[C@H](O)[C@H](O)[C@H](O)COP(=O)(O)O)c2cc1C [FMN, Flavin mononucleotide] | – | – | does not bind |
